Data set [1] addresses T1, SlGAME40 (Solanum lycopersicum, UniProt P10967).
T1 construct: gene ACO3; purified recombinant from E. coli
As to the kind of experiment: LC-MS product detection, sequential one-tube assay. It counts as biochemical. Particulars: acetoxytomatine formed in situ by GAME31 and GAME36; α-ketoglutarate, ascorbate, Fe2+; pH 7.5, 30 °C.

For data set [2], the target named is T2, SlGAME36 (Solanum lycopersicum, UniProt A0A3Q7HQH1).
T2 construct: gene LOC101247356; pET28/pET28b, E. coli BL21 (DE3), Ni-NTA purified His-tagged protein
As to the kind of experiment: LC-MS steady-state kinetics. In kind it is biochemical. Particulars: pH 7.5, 30 °C. From the text:
(§1) LC-MS steady-state kinetics on SlGAME36 | higher catalytic efficiency with hydroxytomatine (native substrate from tomato | hydroxysolamargine (SGA substrate from eggplant | preferred specificity toward acetyl CoA over butyryl CoA

For data set [3], the system named is C[C@@H]1CNC2(O[C@H]3C[C@H]4[C@@H]5CC[C@H]6C[C@@H](O[C@@H]7O[C@H](CO)[C@H](O[C@@H]8O[C@H](CO)[C@@H](O)[C@H](O[C@@H]9OC[C@@H](O)[C@H](O)[C@H]9O)[C@H]8O[C@@H]8O[C@H](CO)[C@@H](O)[C@H](O)[C@H]8O)[C@H](O)[C@H]7O)CC[C@]6(C)[C@H]5CC[C@]4(C)[C@H]3[C@@H]2C)C(O)C1. Nature of the data set: LC-MS steady-state kinetics. It counts as biochemical, Solanum lycopersicum. Particulars: 500 µM acetyl CoA, pH 7.5, 30 °C.
Text: as §1

As for `CC(=O)OC1C[C@H](C)CNC12O[C@H]1C[C@H]3[C@@H]4CC[C@H]5C[C@@H](O[C@@H]6O[C@H](CO)[C@H](O[C@@H]7O[C@H](CO)[C@@H](O)[C@H](O[C@@H]8OC[C@@H](O)[C@H](O)[C@H]8O)[C@H]7O[C@@H]7O[C@H](CO)[C@@H](O)[C@H](O)[C@H]7O)[C@H](O)[C@H]6O)CC[C@]5(C)[C@H]4CC[C@]3(C)[C@H]1[C@@H]2C` (stereo partly drawn) [acetoxytomatine], in data set [1], the “LC-MS product detection, sequential one-tube assay” value is “Sequential assays produced explicitly the expected pathway intermediates”.

For the compound `CC(=O)SCCNC(=O)CCNC(=O)[C@H](O)C(C)(C)COP(=O)(O)OP(=O)(O)OC[C@H]1O[C@@H](n2cnc3c(N)ncnc32)[C@H](O)[C@@H]1OP(=O)(O)O` [acetyl CoA], the Km in data set [2] (100 µM hydroxytomatine) was found to be 24.2 µM.

For the compound `CCCC(=O)SCCNC(=O)CCNC(=O)[C@H](O)C(C)(C)COP(=O)(O)OP(=O)(O)OC[C@H]1O[C@@H](n2cnc3c(N)ncnc32)[C@H](O)[C@@H]1OP(=O)(O)O` [butyryl CoA], the Michaelis constant (Km) in data set [2] (100 µM hydroxytomatine) stood at 60.4 µM.

As for SlGAME36 (Solanum lycopersicum), in data set [3], the Km amounted to 14.43 µM and the kcat is 60.25 s⁻¹.

As for hydroxysolamargine, in data set [2] (500 µM acetyl CoA), the Michaelis constant (Km) was found to be 7.89 µM.

The term Km denotes the concentration of substrate that gives half-maximal velocity. For orientation: kcat means the number of substrate molecules converted per active site and unit of time at saturation.

Source of the values: article PMC10374582, “A BAHD-type acyltransferase concludes the biosynthetic pathway of non-bitter glycoalkaloids in ripe tomato fruit” (Nature Communications, 2023).
